Usually IC50 stands for the concentration at which inhibition is half-maximal.

Active and inactive are the calls of the source. The rule behind the calls is not given here.

Data on four compounds can be found in ChEMBL document CHEMBL1152459, “Drugs designed to inhibit human p38 mitogen-activated protein kinase activation treat Toxoplasma gondii and Encephalitozoon cuniculi infection” (Antimicrob Agents Chemother, 2007).

The test system of data set [1] is Toxoplasma gondii. Put plainly: Antiprotozoal activity against 20 Toxoplasma gondii RH tachyzoites infected in CBA/J mouse assessed as prolongation of survival of mous at 50 mg/kg, po administered 2 hrs postinfection for 7 consecutive days. Also noted: dose 50 mg/kg. In kind it is functional, organism-based.
The subject of data set [2] is Mus musculus. The data set can be described thus: Toxicity in CBA/J mouse at 17 mg/kg, po. Type of data set: organism-based. Also noted: dose 17 mg/kg, route oral. The settings on record: in vivo.
Data set [3] concerns Toxoplasma gondii. Put plainly: microbe, parasite or virus in culture. The conditions noted are these: ME49.
Description: Antiprotozoal activity against 5 MOI Toxoplasma gondii Me49 tachyzoites infected in confluent HFF assessed as inhibition of [3H]uracil incorporation into tachyzoites treated 4 hrs after infection measured after overnight incubation post uracil addition by liquid scintillation counting
Data set [4] concerns Mus musculus. Put plainly: Toxicity in CBA/J mouse at 30 mg/kg, ip. In kind it is organism-based. The arrangement: dose 30 mg/kg, route intraperitoneal. The settings on record: in vivo.
The subject of data set [5] is Mus musculus. The data set can be described thus: Toxicity in CBA/J mouse assessed as occasional and transient fur ruffling at 60 mg/kg, ip. The settings on record: in vivo. Also noted: dose 60 mg/kg, route intraperitoneal. Type of data set: organism-based.
The target of data set [6] is Mitogen-activated protein kinase 14 (Homo sapiens, UniProt Q16539).
Description: Inhibition of human recombinant p38alpha assessed as [gamma33P]ATP utilization by microplate scintillation counting
The subject of data set [7] is Toxoplasma gondii. The data set can be described thus: Antiprotozoal activity against 1000 Toxoplasma gondii RH tachyzoites infected in CBA/J mouse assessed as prolongation of survival of mous at 7.5 mg/kg, ip administered 24 hrs postinfection for 7 consecutive days. Type of data set: functional, organism-based. The arrangement: dose 7.5 mg/kg.
Data set [8] concerns Toxoplasma gondii. Put plainly: Antiprotozoal activity against 2000Toxoplasma gondii RH tachyzoites infected 30 days after initial 20 parasite infection in CBA/J mouse assessed as mouse survival time at 30 mg/kg, ip administered 2 hrs postinfection for 7 consecutive days. The conditions noted are these: route intraperitoneal.
Data set [9] concerns Toxoplasma gondii. The data set can be described thus: Antiprotozoal activity against 100 Toxoplasma gondii RH tachyzoites infected in CBA/J mouse survival at 60 mg/kg, ip administered 2 hrs postinfection once daily for 7 consecutive days. Type of data set: functional. The conditions noted are these: route intraperitoneal.
Data set [10] deals with Toxoplasma gondii. Put plainly: Antiprotozoal activity against 100 Toxoplasma gondii RH tachyzoites infected in CBA/J mouse survival at 60 mg/kg, ip administered 2 hrs postinfection once daily for 7 consecutive days in presence of pyrimethamine 5 mg/kg, po. Type of data set: functional.
For data set [11], the system named is Toxoplasma gondii. Put plainly: Antiprotozoal activity against 1000 Toxoplasma gondii RH tachyzoites infected in CBA/J mouse assessed as prolongation of survival of mous at 3.8 mg/kg, ip administered 24 hrs postinfection for 7 consecutive days. In kind it is functional, organism-based. The arrangement: dose 3.8 mg/kg.
Data set [12] relates to Toxoplasma gondii. Put plainly: microbe, parasite or virus in culture. The settings on record: RH.
Description: Antiprotozoal activity against 1 MOI Toxoplasma gondii RH tachyzoites infected in confluent HFF assessed as inhibition of [3H]uracil incorporation into tachyzoites treated 4 hrs after infection measured after overnight incubation post uracil addition by liquid scintillation counting
Data set [13] has as its system Toxoplasma gondii. Put plainly: Antiprotozoal activity against 2000Toxoplasma gondii RH tachyzoites infected 30 days after initial 100 parasite infection in CBA/J mouse assessed as mouse survival time at 60 mg/kg, ip administered 2 hrs postinfection for 7 consecutive days. The conditions noted are these: route intraperitoneal.
Data set [14] relates to Toxoplasma gondii. The data set can be described thus: Antiprotozoal activity against 1000 Toxoplasma gondii RH tachyzoites infected in CBA/J mouse assessed as prolongation of survival of mous at 15 mg/kg, ip administered 24 hrs postinfection for 7 consecutive days. Type of data set: functional, organism-based. The arrangement: dose 15 mg/kg.
In data set [15] the test system is Mus musculus. The data set can be described thus: Toxicity in CBA/J mouse at 50 mg/kg, po. In kind it is organism-based. The arrangement: dose 50 mg/kg, route oral. The settings on record: in vivo.
For data set [16], the system named is Encephalitozoon cuniculi. Put plainly: Antiprotozoal activity against Encephalitozoon cuniculi infected in CD8 knockout […] mouse mouse survival at 6 mg/kg, ip administered 2 days after infection for 15 consecutive days. Type of data set: functional, organism-based. The arrangement: dose 6 mg/kg.
In data set [17] the test system is Toxoplasma gondii. Put plainly: Antiprotozoal activity against 20 Toxoplasma gondii RH tachyzoites infected in CBA/J mouse assessed as prolongation of survival of mous at 60 mg/kg, ip administered 2 hrs postinfection for 7 consecutive days. The settings on record: route intraperitoneal. Type of data set: functional.
Data set [18] addresses T1, Mitogen-activated protein kinase 1 (Toxoplasma gondii, UniProt Q5SC61).
T1 sequence (Q5SC61 whole entry): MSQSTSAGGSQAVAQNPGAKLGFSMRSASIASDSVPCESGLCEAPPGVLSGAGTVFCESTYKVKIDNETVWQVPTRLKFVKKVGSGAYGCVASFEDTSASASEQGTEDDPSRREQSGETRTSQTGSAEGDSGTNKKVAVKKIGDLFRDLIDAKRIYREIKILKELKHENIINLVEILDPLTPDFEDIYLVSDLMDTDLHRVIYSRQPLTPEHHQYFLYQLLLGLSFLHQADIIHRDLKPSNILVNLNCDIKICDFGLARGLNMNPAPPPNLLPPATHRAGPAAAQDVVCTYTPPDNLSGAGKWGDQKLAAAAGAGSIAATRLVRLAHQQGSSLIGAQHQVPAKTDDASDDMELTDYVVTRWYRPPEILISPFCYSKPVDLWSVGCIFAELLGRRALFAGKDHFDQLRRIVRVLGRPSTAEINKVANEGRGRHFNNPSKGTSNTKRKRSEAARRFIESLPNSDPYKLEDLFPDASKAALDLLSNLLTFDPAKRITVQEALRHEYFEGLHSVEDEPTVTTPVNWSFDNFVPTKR
The data set can be described thus: Inhibition of Toxoplasma gondii recombinant MAPK1 expressed in Escherichia coli. Type of data set: cell-free.

Data set [19] deals with Toxoplasma gondii. The data set can be described thus: Antiprotozoal activity against 2000Toxoplasma gondii RH tachyzoites infected 30 days after initial 100 parasite infection in CBA/J mouse assessed as mouse survival time at 5 mg/kg, ip administered 2 hrs postinfection for 7 consecutive days. The settings on record: route intraperitoneal.
Data set [20] concerns Toxoplasma gondii. The data set can be described thus: Antiprotozoal activity against 100 Toxoplasma gondii RH tachyzoites infected in CBA/J mouse assessed as prolongation of survival of mous at 30 mg/kg, ip administered 24 hrs postinfection twice daily for 7 consecutive days. Type of data set: functional, organism-based. The arrangement: dose 30 mg/kg.
Data set [21] deals with Toxoplasma gondii. The data set can be described thus: Antiprotozoal activity against 5 MOI SB-203580-resistant Toxoplasma gondii SBRMe49-2 tachyzoites infected in confluent HFF assessed as inhibition of [3H]uracil incorporation into tachyzoites at 0.25 to 10 uM treated 4 hrs after infection measured after overnight incubation post uracil addition by liquid scintillation counting. Type of data set: functional, organism-based.

Data set [22] concerns Toxoplasma gondii. The data set can be described thus: Antiprotozoal activity against 2000Toxoplasma gondii RH tachyzoites infected 30 days after initial 20 parasite infection in CBA/J mouse assessed as mouse survival time at 60 mg/kg, ip administered 2 hrs postinfection for 7 consecutive days. The conditions noted are these: route intraperitoneal.
The subject of data set [23] is Toxoplasma gondii. The data set can be described thus: Antiprotozoal activity against 100 Toxoplasma gondii RH tachyzoites infected in CBA/J mouse assessed as prolongation of survival of mous at 60 mg/kg, ip administered 24 hrs postinfection once daily for 7 consecutive days. In kind it is functional, organism-based. Also noted: dose 60 mg/kg.
Data set [24] relates to Toxoplasma gondii. Put plainly: Antiprotozoal activity against 20 Toxoplasma gondii RH tachyzoites infected in CBA/J mouse assessed as prolongation of survival of mous at 30 mg/kg, ip administered 2 hrs postinfection for 7 consecutive days. In kind it is functional. The conditions noted are these: route intraperitoneal.
Data set [25] concerns Toxoplasma gondii. Put plainly: Antiprotozoal activity against 100 Toxoplasma gondii RH tachyzoites infected in CBA/J mouse assessed as prolongation of survival of mous at 30 mg/kg, ip twice daily for 7 consecutive days administered 2 hrs postinfection. Type of data set: functional, organism-based. The arrangement: dose 30 mg/kg.
In data set [26] the test system is Toxoplasma gondii. Put plainly: Antiprotozoal activity against 1000 Toxoplasma gondii RH tachyzoites infected in CBA/J mouse assessed as prolongation of survival of mous at 30 mg/kg, ip administered 24 hrs postinfection for 7 consecutive days. In kind it is functional, organism-based. The arrangement: dose 30 mg/kg.
Data set [27] concerns Toxoplasma gondii. Put plainly: Antiprotozoal activity against 20 Toxoplasma gondii RH tachyzoites infected in CBA/J mouse assessed as prolongation of survival of mous at 17 mg/kg, po administered 2 hrs postinfection for 7 consecutive days. Type of data set: functional, organism-based. The arrangement: dose 17 mg/kg.
Data set [28] concerns Toxoplasma gondii. The data set can be described thus: Antiprotozoal activity against 100 Toxoplasma gondii RH tachyzoites infected in CBA/J mouse survival at 60 mg/kg, ip administered 2 hrs postinfection once daily for 7 consecutive days in presence of sulfadiazine 75 mg/liter. Type of data set: functional. The settings on record: route intraperitoneal.
The test system of data set [29] is Encephalitozoon cuniculi. Put plainly: Antiprotozoal activity against Encephalitozoon cuniculi infected in CD8 knockout […] mouse assessed as prolongation of survival of mous-related absence of ascites fluid and sluggishness at 36 mg/kg, ip administered 2 days after infection for 15 consecutive days. Type of data set: functional, organism-based. The arrangement: dose 36 mg/kg.

For data set [30], the system named is Toxoplasma gondii. The data set can be described thus: Antiprotozoal activity against 1000 Toxoplasma gondii RH tachyzoites infected in CBA/J mouse assessed as prolongation of survival of mous at 60 mg/kg, ip administered 24 hrs postinfection for 7 consecutive days. In kind it is functional, organism-based. The arrangement: dose 60 mg/kg.
The test system of data set [31] is Toxoplasma gondii. The data set can be described thus: Antiprotozoal activity against 5 MOI wild type Toxoplasma gondii Me49 tachyzoites infected in confluent HFF assessed as inhibition of [3H]uracil incorporation into tachyzoites at 0.25 to 10 uM treated 4 hrs after infection measured after overnight incubation post uracil addition by liquid scintillation counting. Type of data set: functional, organism-based.

Mitogen-activated protein kinase 14, sequence (Q16539 whole entry): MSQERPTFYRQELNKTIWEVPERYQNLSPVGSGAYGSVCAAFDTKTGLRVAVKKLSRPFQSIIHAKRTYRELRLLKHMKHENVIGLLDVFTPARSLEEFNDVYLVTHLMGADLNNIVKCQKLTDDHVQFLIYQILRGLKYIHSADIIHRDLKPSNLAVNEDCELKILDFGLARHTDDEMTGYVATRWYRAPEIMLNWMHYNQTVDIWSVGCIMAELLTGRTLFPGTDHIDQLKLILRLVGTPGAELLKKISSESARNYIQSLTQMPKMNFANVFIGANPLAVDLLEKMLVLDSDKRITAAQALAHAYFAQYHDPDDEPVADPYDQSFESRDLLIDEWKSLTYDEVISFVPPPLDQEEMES

Regarding `OCCC#Cc1nc(-c2ccc(F)cc2)c(-c2ccncc2)n1CCCc1ccccc1` [RWJ-67657], the result in the data set on Toxoplasma gondii [1], with Toxoplasma gondii [7], in the data set on Toxoplasma gondii [11], in the data set with Toxoplasma gondii [14], with Encephalitozoon cuniculi [16] and with Toxoplasma gondii [20] was inactive. In addition, the result in the data set with Toxoplasma gondii [21], with Toxoplasma gondii [23], in the data set with Toxoplasma gondii [25], with Toxoplasma gondii [26] and in the data set on Toxoplasma gondii [27] was inactive. Moreover, the Activity result in the data set with Mus musculus [2] is “Non-toxic”; with Mus musculus [4], “Non-toxic”; in the data set on Mus musculus [5], “Toxic”; in the data set with Toxoplasma gondii [8], 30 days; in the data set with Toxoplasma gondii [9], 40%; in the data set with Toxoplasma gondii [10], 80%. For the same compound, the Activity was 30 days with Toxoplasma gondii [13]; “Non-toxic” in the data set on Mus musculus [15]; 100% in the data set on Toxoplasma gondii [17]; 30 days with Toxoplasma gondii [19]; 30 days in the data set on Toxoplasma gondii [22]; 100% with Toxoplasma gondii [24]. Also, in the data set on Toxoplasma gondii [28], the Activity was 80%. Besides, the IC50 amounted to 0.8 µM with Toxoplasma gondii [3], 1 µM in [6], 5 µM with Toxoplasma gondii [12] and 0.2 µM in data set [18]. Moreover, the result in the data set with Encephalitozoon cuniculi [29] and with Toxoplasma gondii [30] was Active.
In the case of `Oc1ccc(-c2nc(-c3ccc(F)cc3)c(-c3ccncc3)[nH]2)cc1`, in the data set on Toxoplasma gondii [21], the outcome was inactive.
Turning to `CCc1nc(-c2ccc(OC)cc2)[nH]c1-c1ccncc1` [SB-202474], the outcome in the data set with Toxoplasma gondii [31] and with Toxoplasma gondii [21] was inactive. The Activity in the data set with Toxoplasma gondii [8], in the data set on Toxoplasma gondii [13], in the data set with Toxoplasma gondii [19] and with Toxoplasma gondii [22] was 30 days in each case.
In the case of `C[S+]([O-])c1ccc(-c2nc(-c3ccc(F)cc3)c(-c3ccncc3)[nH]2)cc1` (stereo not drawn) [SB-203580], the IC50 with Toxoplasma gondii [3] amounted to 2.5 µM; in the data set with Toxoplasma gondii [12], 8.5 µM. In addition, the Activity with Toxoplasma gondii [8], in the data set on Toxoplasma gondii [13], with Toxoplasma gondii [19] and in the data set with Toxoplasma gondii [22] was 30 days each time.
